System: subjects with moderate-to-severe plaque psoriasis
Test: Safety, adverse events, Example 2 through Week 56
Assay type: in vivo, human
Details: Placebo → 100 mg QD
Source text: The LTE safety analysis was based on randomized participants in Example who entered the present long-term extension study and received at least one dose of study intervention (including a partial dose) during the study period.

With `CC(=O)NCCCC[C@@H]1NC(=O)[C@H](Cc2c[nH]c3c(C)cccc23)NC(=O)[C@H]([C@@H](C)O)NC(=O)[C@H](CC(N)=O)NC(=O)[C@@H](NC(C)=O)C(C)(C)SSC(C)(C)[C@@H](C(=O)N[C@@H](Cc2ccc(OCCN)cc2)C(=O)N[C@@H](Cc2ccc3ccccc3c2)C(=O)NC2(C(=O)N[C@@H](CCC(=O)O)C(=O)N[C@@H](CC(N)=O)C(=O)N[C@@H](Cc3cccnc3)C(=O)N(C)CC(N)=O)CCOCC2)NC1=O` [IL-23 receptor antagonist peptide, Ac-[Pen]*-N-T-[W(7-Me)]-[Lys(Ac)]-[Pen]*-Phe[4-(2-aminoethoxy)]-[2-Nal]-[THP]-E-N-[3-Pal]-Sarc-NH2 (*[Pen]-[Pen]* formdisulfidebond)] the “Subjects with serious adverse event: Ventricular dysfunction” value (LTE Safety analysis set) was 0, the “Subjects with 1 or more treatment-emergent adverse events leading to discontinuation of study agent” value (Week 16-56) was 0 and the “Subjects with AE leading to discontinuation: Alanine aminotransferase increased” value (Week 16-56) was 0. For the same compound, the “Subjects with AE leading to discontinuation: Aspartate aminotransferase increased” value (Week 16-56) was 0, the “Subjects with AE leading to discontinuation: Asthenia” value (Week 16-56) was 0 and the “Subjects with AE leading to discontinuation: Chills” value (Week 16-56) was 0. The “Subjects with AE leading to discontinuation: Ear and labyrinth disorders” value (Week 16-56) was 0, the “Subjects with AE leading to discontinuation: Gamma-glutamyltransferase increased” value (Week 16-56) was 0 and the “Subjects with AE leading to discontinuation: Gastrointestinal disorders” value (Week 16-56) was 0. For the same compound, the “Subjects with AE leading to discontinuation: General disorders and administration site conditions” value (Week 16-56) was 0, the “Subjects with AE leading to discontinuation: Headache” value (Week 16-56) was 0 and the “Subjects with AE leading to discontinuation: Insomnia” value (Week 16-56) was 0. The “Subjects with AE leading to discontinuation: Investigations” value (Week 16-56) was 0, the “Subjects with AE leading to discontinuation: Nervous system disorders” value (Week 16-56) was 0 and the “Subjects with AE leading to discontinuation: Proctalgia” value (Week 16-56) was 0. For the same compound, the “Subjects with AE leading to discontinuation: Psoriasis” value (Week 16-56) was 0, the “Subjects with AE leading to discontinuation: Psychiatric disorders” value (Week 16-56) was 0 and the “Subjects with AE leading to discontinuation: Skin and subcutaneous tissue disorders” value (Week 16-56) was 0. For the same compound, the “Subjects with AE leading to discontinuation: Vertigo” value (Week 16-56) was 0, the “Subjects with AE leading to discontinuation: Vomiting” value (Week 16-56) was 0 and the “Subjects with treatment-emergent AE: Headache” value (Week 16-56) was 0. For the same compound, the “Subjects with treatment-emergent AE: Meniscus injury” value (Week 16-56) was 0, the “Subjects with treatment-emergent AE: Nasopharyngitis” value (Week 16-56) was 9 and the “Subjects with treatment-emergent AE: Sinusitis” value (Week 16-56) was 0. The “Subjects with treatment-emergent AE: Vomiting” value (Week 16-56) was 0, the “Subjects with treatment-emergent serious AE: Cardiac disorders” value (Week 16-56) was 0 and the “Subjects with treatment-emergent serious AE: Coronary artery disease” value (Week 16-56) was 0. For the same compound, the “Subjects with treatment-emergent serious AE: Diverticulitis” value (Week 16-56) was 0, the “Subjects with treatment-emergent serious AE: Foot deformity” value (Week 16-56) was 0 and the “Subjects with treatment-emergent serious AE: General disorders and administration site conditions” value (Week 16-56) was 0. The “Subjects with treatment-emergent serious AE: Infections and infestations” value (Week 16-56) was 0, the “Subjects with treatment-emergent serious AE: Injury, poisoning and procedural complications” value (Week 16-56) was 0 and the “Subjects with treatment-emergent serious AE: Intervertebral disc protrusion” value (Week 16-56) was 0. For the same compound, the “Subjects with treatment-emergent serious AE: Ligament injury” value (Week 16-56) was 0, the “Subjects with treatment-emergent serious AE: Musculoskeletal and connective tissue disorders” value (Week 16-56) was 0 and the “Subjects with treatment-emergent serious AE: Neoplasms benign, malignant and unspecified (incl cysts and polyps)” value (Week 16-56) was 0. The “Subjects with treatment-emergent serious AE: Non-cardiac chest pain” value (Week 16-56) was 0, the “Subjects with treatment-emergent serious AE: Respiratory, thoracic and mediastinal disorders” value (Week 16-56) was 0 and the “Subjects with treatment-emergent serious AE: Tonsillar hypertrophy” value (Week 16-56) was 0. The “Subjects with treatment-emergent serious AE: Uterine leiomyoma” value (Week 16-56) was 0, the “Subjects with treatment-emergent serious AE: Ventricular dysfunction” value (Week 16-56) was 0 and the “Acrochordon: number of subjects” value (through Week 56) was 0. The “Actinic keratosis: number of subjects” value (through Week 56) was 0, the “Alopecia: number of subjects” value (through Week 56) was 0 and the “Asthenia: number of subjects” value (through Week 56) was 0. For the same compound, the “Asthma: number of subjects” value (through Week 56) was 0, the “Atrioventricular block first degree: number of subjects” value (through Week 56) was 0 and the “Basal cell carcinoma: number of subjects” value (through Week 56) was 0. The “Blood and lymphatic system disorders: number of subjects” value (through Week 56) was 0, the “Bronchitis chronic: number of subjects” value (through Week 56) was 0 and the “Bundle branch block right: number of subjects” value (through Week 56) was 0. For the same compound, the “Cardiac disorders: number of subjects” value (through Week 56) was 0, the “Chills: number of subjects” value (through Week 56) was 0 and the “Cholelithiasis: number of subjects” value (through Week 56) was 0. The “Chronic obstructive pulmonary disease: number of subjects” value (through Week 56) was 0, the “Coronary artery disease: number of subjects” value (through Week 56) was 0 and the “Cough: number of subjects” value (through Week 56) was 0. For the same compound, the “Decreased appetite: number of subjects” value (through Week 56) was 0, the “Depression: number of subjects” value (through Week 56) was 0 and the “Dermal cyst: number of subjects” value (through Week 56) was 0. The “Dermatitis acneiform: % of subjects” value (through Week 56) was “(2.9%)”, the “Dermatitis acneiform: number of subjects” value (through Week 56) was 1 and the “Dermatitis contact: number of subjects” value (through Week 56) was 0. For the same compound, the “Diabetes mellitus: number of subjects” value (through Week 56) was 0, the “Diffuse alopecia: number of subjects” value (through Week 56) was 0 and the “Dysuria: % of subjects” value (through Week 56) was “(2.9%)”. The “Dysuria: number of subjects” value (through Week 56) was 1, the “Ear and labyrinth disorders: number of subjects” value (through Week 56) was 0 and the “Endocrine disorders: number of subjects” value (through Week 56) was 0. For the same compound, the “Eye disorders: % of subjects” value (through Week 56) was “(5.7%)”, the “Eye disorders: number of subjects” value (through Week 56) was 2 and the “Eyelid skin dryness: number of subjects” value (through Week 56) was 0. For the same compound, the “Fatigue: number of subjects” value (through Week 56) was 0, the “General disorders and administration site conditions: number of subjects” value (through Week 56) was 0 and the “Goiter: number of subjects” value (through Week 56) was 0. For the same compound, the “Haemochromatosis: % of subjects” value (through Week 56) was “(2.9%)”, the “Haemochromatosis: number of subjects” value (through Week 56) was 1 and the “Hand dermatitis: % of subjects” value (through Week 56) was “(2.9%)”. The “Hand dermatitis: number of subjects” value (through Week 56) was 1, the “Hematuria: % of subjects” value (through Week 56) was “(2.9%)” and the “Hematuria: number of subjects” value (through Week 56) was 1. The “Hepatobiliary disorders: % of subjects” value (through Week 56) was “(2.9%)”, the “Hepatobiliary disorders: number of subjects” value (through Week 56) was 1 and the “Hypercholesterolemia: number of subjects” value (through Week 56) was 0. For the same compound, the “Hyperglycemia: number of subjects” value (through Week 56) was 0, the “Hyperlipidemia: number of subjects” value (through Week 56) was 0 and the “Hypertension: % of subjects” value (through Week 56) was “(2.9%)”. The “Hypertension: number of subjects” value (through Week 56) was 1, the “Hypertransaminasemia: % of subjects” value (through Week 56) was “(2.9%)” and the “Hypertransaminasemia: number of subjects” value (through Week 56) was 1. The “Hypertriglyceridemia: number of subjects” value (through Week 56) was 0, the “Hypoacusis: number of subjects” value (through Week 56) was 0 and the “Immune system disorders: number of subjects” value (through Week 56) was 0. The “Influenza like illness: number of subjects” value (through Week 56) was 0, the “Insomnia: number of subjects” value (through Week 56) was 0 and the “Intertrigo: number of subjects” value (through Week 56) was 0. The “Ketonuria: number of subjects” value (through Week 56) was 0, the “Leukocyturia: number of subjects” value (through Week 56) was 0 and the “Leukopenia: number of subjects” value (through Week 56) was 0. For the same compound, the “Libido decreased: number of subjects” value (through Week 56) was 0, the “Liver disorder: number of subjects” value (through Week 56) was 0 and the “Lymphopenia: number of subjects” value (through Week 56) was 0. The “Menopause: number of subjects” value (through Week 56) was 0, the “Metabolism and nutrition disorders: % of subjects” value (through Week 56) was “(2.9%)” and the “Metabolism and nutrition disorders: number of subjects” value (through Week 56) was 1. The “Neoplasms benign, malignant and unspecified (incl cysts and polyps): number of subjects” value (through Week 56) was 0, the “Nephrolithiasis: number of subjects” value (through Week 56) was 0 and the “Neutropenia: number of subjects” value (through Week 56) was 0. The “Night sweats: number of subjects” value (through Week 56) was 0, the “Non-cardiac chest pain: number of subjects” value (through Week 56) was 0 and the “Ocular cyst: % of subjects” value (through Week 56) was “(2.9%)”. For the same compound, the “Ocular cyst: number of subjects” value (through Week 56) was 1, the “Oedema peripheral: number of subjects” value (through Week 56) was 0 and the “Oropharyngeal pain: % of subjects” value (through Week 56) was “(2.9%)”. For the same compound, the “Oropharyngeal pain: number of subjects” value (through Week 56) was 1, the “Procedural pain: number of subjects” value (through Week 56) was 0 and the “Productive cough: number of subjects” value (through Week 56) was 0. For the same compound, the “Proteinuria: number of subjects” value (through Week 56) was 0, the “Pruritus: number of subjects” value (through Week 56) was 0 and the “Psoriasis: number of subjects” value (through Week 56) was 0. The “Psychiatric disorders: number of subjects” value (through Week 56) was 0.

— US20260232767A1, “INTERLEUKIN-23 RECEPTOR ANTAGONIST PEPTIDES FOR USE IN THE TREATMENT OF PSORIASIS” (Janssen Pharmaceutica NV, priority 2023, published 2026)
